Here are results for 46 compounds from the PolyMetriX glass transition set.

Each structure is given as a SMILES string.

`*/C=C/C1CC(*)C2C3CCC(C3)C12` (repeat unit): the glass transition temperature is 207.40 °C.
`*Oc1ccc(C(=O)c2cccc(C(=O)c3ccc(*)c(C(C)C)c3)c2)cc1C` (repeat unit): the glass transition temperature turned out to be 147.00 °C.
With `*Oc1ccc(Oc2ccc(C(=O)c3cccc(C(=O)c4ccc(*)cc4)c3)cc2)cc1` (repeat unit) the figure was 148.00 °C; with `*c1ccc(-c2ccc(N3C(=O)c4ccc(S(=O)(=O)c5ccc6c(c5)C(=O)N(*)C6=O)cc4C3=O)cc2C(F)(F)F)c(C(F)(F)F)c1` (repeat unit), 320.00 °C.
With `*c1ccc(C(c2ccccc2)c2ccc(N3C(=O)c4ccc(-c5ccc6c(c5)C(=O)N(*)C6=O)cc4C3=O)cc2)cc1` (repeat unit) the figure was 315.00 °C; with `*c1ccc(C(c2ccccc2)c2ccc(N3C(=O)c4ccc(S(=O)(=O)c5ccc6c(c5)C(=O)N(*)C6=O)cc4C3=O)cc2)cc1` (repeat unit), 305.00 °C.
`*c1ccc(C2(c3ccc(N4C(=O)c5ccc(-c6ccc7c(c6)C(=O)N(*)C7=O)cc5C4=O)cc3)c3ccccc3-c3ccccc32)cc1` (repeat unit): the glass transition temperature turned out to be 388.00 °C.
The figure for `*c1ccc(Cc2ccc(N3C(=O)c4ccc([Si](C)(C)c5ccc6c(c5)C(=O)N(*)C6=O)cc4C3=O)cc2)cc1` (repeat unit) is 280.00 °C; for `*c1ccc(N2C(=O)c3ccc(-c4ccc5c(c4)C(=O)N(c4ccc6[nH]c(*)nc6c4)C5=O)cc3C2=O)cc1` (repeat unit) it is 397.50 °C.
In turn, `*c1ccc(OCCCCCOc2ccc(N3C(=O)c4ccc(-c5cccc6c5C(=O)N(*)C6=O)cc4C3=O)cc2)cc1` (repeat unit) had a glass transition temperature of 208.00 °C.
Turning to `*c1ccc(Oc2cc3ccccc3cc2Oc2ccc(N3C(=O)c4ccc(-c5ccc6c(c5)C(=O)N(*)C6=O)cc4C3=O)cc2)cc1` (repeat unit), the glass transition temperature is 253.50 °C.
`*c1ccc(Oc2ccc(C(=O)c3cccc(C(=O)c4ccc(Oc5ccc(N6C(=O)c7ccc(Oc8ccc(Sc9ccc(Oc%10ccc%11c(c%10)C(=O)N(*)C%11=O)cc9)cc8)cc7C6=O)cc5)cc4)c3)cc2)cc1` (repeat unit) returned a glass transition temperature of 192.00 °C.
Regarding `*c1ccc(Oc2ccc(C(=O)c3cccc(C(=O)c4ccc(Oc5ccc(N6C(=O)c7ccc([Si](C)(C)c8ccc9c(c8)C(=O)N(*)C9=O)cc7C6=O)cc5)cc4)c3)cc2)cc1` (repeat unit), the glass transition temperature was 208.00 °C.
With `*c1ccc(Oc2ccc(N3C(=O)c4ccc(C(c5ccc6c(c5)C(=O)N(c5ncc(*)s5)C6=O)(C(F)(F)F)C(F)(F)F)cc4C3=O)cc2)cc1` (repeat unit) the figure was 268.20 °C; with `*c1ccc(Oc2ccc(N3C(=O)c4ccc(S(=O)(=O)c5ccc6c(c5)C(=O)N(*)C6=O)cc4C3=O)cc2Br)c(Br)c1` (repeat unit), 281.00 °C.
With `*c1ccc(Oc2ccc(Oc3ccc(Oc4ccc(N5C(=O)c6ccc(-c7ccc8c(c7)C(=O)N(*)C8=O)cc6C5=O)cc4)cc3)cc2)cc1` (repeat unit) the figure was 228.51 °C.
For `*c1ccc(Oc2ccccc2Oc2ccc(N3C(=O)c4ccc(S(=O)(=O)c5ccc6c(c5)C(=O)N(*)C6=O)cc4C3=O)cc2C(F)(F)F)c(C(F)(F)F)c1` (repeat unit), the glass transition temperature was determined as 255.00 °C.
The figure for `*c1ccc2c(c1)C(=O)N(c1ccc(-c3ccc(N4C(=O)c5ccc(C(*)(C(F)(F)F)C(F)(F)F)cc5C4=O)c(O)c3)cc1O)C2=O` (repeat unit) is 358.00 °C; for `*c1ccc2c(c1)C(=O)N(c1ccc(-c3ccc(N4C(=O)c5ccc(C(*)(C(F)(F)F)C(F)(F)F)cc5C4=O)c(OCCCCCCOc4ccc(/C=C/c5ccc(F)cc5)cc4)c3)cc1OCCCCCCOc1ccc(/C=C/c3ccc(F)cc3)cc1)C2=O` (repeat unit) it is 140.00 °C.
With `*c1ccc2c(c1)C(=O)N(c1ccc(C3(c4ccc(N5C(=O)c6ccc(C(*)(C(F)(F)F)C(F)(F)F)cc6C5=O)c(F)c4)c4ccccc4-c4ccccc43)cc1F)C2=O` (repeat unit) the figure was 352.00 °C; with `*c1ccc2c(c1)C(=O)N(c1ccc(N(c3ccc(/C=C/c4ccc([N+](=O)[O-])cc4)cc3)c3ccc(N4C(=O)c5ccc(C(*)(C(F)(F)F)C(F)(F)F)cc5C4=O)cc3)cc1)C2=O` (repeat unit), 290.00 °C; with `*c1ccc2c(c1)C(=O)N(c1ccc(N3C(=O)c4ccc(-c5c(-c6ccccc6)c(-c6ccccc6)c(-c6ccc(Oc7ccc(-c8c(-c9ccccc9)c(-c9ccccc9)c(*)c(-c9ccccc9)c8-c8ccccc8)cc7)cc6)c(-c6ccccc6)c5-c5ccccc5)cc4C3=O)cc1)C2=O` (repeat unit), 353.00 °C.
With `*c1ccc2c(c1)C(=O)N(c1ccc(Oc3ccc(-c4ccc(Oc5ccc(N6C(=O)c7ccc(C(*)(C(F)(F)F)C(F)(F)F)cc7C6=O)cc5)cc4)cc3)cc1)C2=O` (repeat unit) the figure was 288.00 °C; with `*c1ccc2c(c1)C(=O)N(c1ccc(Oc3ccc(C(=O)c4cccc(C(=O)c5ccc(Oc6ccc(N7C(=O)c8ccc(C(*)(C(F)(F)F)C(F)(F)F)cc8C7=O)cc6C(F)(F)F)cc5)n4)cc3)c(C(F)(F)F)c1)C2=O` (repeat unit), 206.40 °C.
`*c1ccc2c(c1)C(=O)N(c1ccc(Oc3ccc(C(c4ccc(Oc5ccc(N6C(=O)c7ccc(C(*)(C(F)(F)F)C(F)(F)F)cc7C6=O)cc5C(F)(F)F)cc4)(C(F)(F)F)C(F)(F)F)cc3)c(C(F)(F)F)c1)C2=O` (repeat unit) yielded a glass transition temperature of 234.00 °C.
The figure for `*c1ccc2c(c1)C(=O)N(c1ccc(Oc3ccc(N4C(=O)c5ccc(C(*)(C(F)(F)F)C(F)(F)F)cc5C4=O)cc3Br)c(Br)c1)C2=O` (repeat unit) is 299.00 °C; for `*c1ccc2c(c1)C(=O)N(c1ccc(Oc3ccc(N4C(=O)c5ccc(C(*)O)cc5C4=O)cc3)cc1)C2=O` (repeat unit) it is 250.00 °C.
With `*c1ccc2c(c1)C(=O)N(c1ccc(Oc3ccc(N4C(=O)c5ccc(C(F)(F)C(F)(F)C(*)(F)F)cc5C4=O)cc3)cc1)C2=O` (repeat unit) the figure was 222.00 °C.
Turning to `*c1ccc2c(c1)C(=O)N(c1ccc(Oc3ccc(Oc4ccc(N5C(=O)c6ccc(C(*)(C(F)(F)F)C(F)(F)F)cc6C5=O)cc4)cc3)c(C(F)(F)F)c1)C2=O` (repeat unit), the glass transition temperature was determined as 260.80 °C.
As for `*c1ccc2c(c1)C(=O)N(c1ccc(Oc3ccc(S(=O)(=O)c4ccc(Oc5ccc(N6C(=O)c7ccc(C(*)(C(F)(F)F)C(F)(F)F)cc7C6=O)cc5)cc4)cc3)cc1)C2=O` (repeat unit), the glass transition temperature amounted to 276.50 °C.
With `*c1ccc2c(c1)C(=O)N(c1ccc(Oc3ccc4ccc(Oc5ccc(N6C(=O)c7ccc(C(*)(C(F)(F)F)C(F)(F)F)cc7C6=O)cc5)cc4c3)cc1)C2=O` (repeat unit) the figure was 302.30 °C; with `*c1ccc2c(c1)C(=O)N(c1ccc(S(=O)(=O)c3ccc(N4C(=O)c5ccc(C(F)(F)C(F)(F)C(*)(F)F)cc5C4=O)cc3)cc1)C2=O` (repeat unit), 259.00 °C.
The figure for `*c1ccc2c(c1)C(=O)N(c1ccc(S(=O)(=O)c3ccc(S(=O)(=O)c4ccc(S(=O)(=O)c5ccc(N6C(=O)c7ccc(C(*)(C(F)(F)F)C(F)(F)F)cc7C6=O)cc5)cc4)cc3)cc1)C2=O` (repeat unit) is 327.00 °C; for `*c1ccc2c(c1)C(=O)N(c1ccc(Sc3ccc(N4C(=O)c5ccc(C(*)(C(F)(F)F)C(F)(F)F)cc5C4=O)cc3)cc1)C2=O` (repeat unit) it is 301.00 °C; for `*c1ccc2c(c1)C(=O)N(c1ccc(Sc3ccc(Sc4ccc(Sc5ccc(N6C(=O)c7ccc(C(*)(C(F)(F)F)C(F)(F)F)cc7C6=O)cc5)cc4)cc3)cc1)C2=O` (repeat unit) it is 233.00 °C.
With `*c1ccc2c(c1)C(=O)N(c1cccc(C(F)(F)C(F)(F)C(F)(F)C(F)(F)C(F)(F)c3cccc(N4C(=O)c5ccc(C(F)(F)C(F)(F)C(F)(F)C(F)(F)C(F)(F)C(F)(F)C(*)(F)F)cc5C4=O)c3)c1)C2=O` (repeat unit) the figure was 108.50 °C.
For the compound `*c1ccc2c(c1)C(=O)N(c1cccc(C(F)(F)C(F)(F)C(F)(F)c3cccc(N4C(=O)c5ccc(C(F)(F)C(F)(F)C(F)(F)C(*)(F)F)cc5C4=O)c3)c1)C2=O` (repeat unit), the glass transition temperature was 159.00 °C.
With `*c1ccc2c(c1)C(=O)N(c1cccc(C(O)c3cccc(N4C(=O)c5ccc(C(*)(C(F)(F)F)C(F)(F)F)cc5C4=O)c3)c1)C2=O` (repeat unit) the figure was 262.00 °C.
`*c1ccc2c(c1)C(=O)N(c1cccc(Oc3ccc(N4C(=O)c5ccc(C(*)(C(F)(F)F)C(F)(F)F)cc5C4=O)cc3)c1)C2=O` (repeat unit) showed a glass transition temperature of 260.00 °C.
In turn, `*c1cccc(CCCOc2cccc(N3C(=O)c4cccc(-c5ccc6c(c5)C(=O)N(*)C6=O)c4C3=O)c2)c1` (repeat unit) displayed a glass transition temperature of 178.00 °C.
`*c1cccc(Cc2cccc(N3C(=O)c4ccc([Si](C)(C)c5ccc6c(c5)C(=O)N(*)C6=O)cc4C3=O)c2)c1` (repeat unit) registered a glass transition temperature of 238.00 °C.
With `*c1cccc(N2C(=O)c3ccc(C(c4ccc5c(c4)C(=O)N(c4cccc(-n6c(=O)c7cc8c(=O)n(*)c(=O)c8cc7c6=O)c4)C5=O)(C(F)(F)F)C(F)(F)F)cc3C2=O)c1` (repeat unit) the figure was 338.00 °C.
For `*c1cccc(OCCCCCCCCCCCCOc2cccc(N3C(=O)c4ccc(-c5ccc6c(c5)C(=O)N(*)C6=O)cc4C3=O)c2)c1` (repeat unit), the glass transition temperature was determined as 116.00 °C.
In turn, `*c1cccc(OCCCCCCCCCCCCOc2cccc(N3C(=O)c4ccc(-c5cccc6c5C(=O)N(*)C6=O)cc4C3=O)c2)c1` (repeat unit) came in with a glass transition temperature of 116.00 °C.
`*c1cccc(OCCCCCCCCCOc2cccc(N3C(=O)c4ccc(-c5ccc6c(c5)C(=O)N(*)C6=O)cc4C3=O)c2)c1` (repeat unit) registered a glass transition temperature of 132.00 °C.
The compound `*c1cccc(OCCCCCCCCCOc2cccc(N3C(=O)c4ccc(-c5cccc6c5C(=O)N(*)C6=O)cc4C3=O)c2)c1` (repeat unit) showed a glass transition temperature of 134.00 °C.
